From US20150368616A1, “METHODS FOR INDUCTION OF CELL FATES FROM PLURIPOTENT CELLS” (THE CLEVELAND CLINIC FOUNDATION, priority 2013, published 2015)

B1: Ngn3: pro-endocrine bHLH factor, 214 amino acids (protein, UniProt Q9Y4Z2 1-214, looked up)
chain: MTPQPSGAPTVQVTRETERSFPRASEDEVTCPTSAPPSPTRTRGNCAEAEEGGCRGAPRKLRARRGGRSRPKSELALSKQRRSRRKKANDRERNRMHNLNSALDALRGVLPTFPDDAKLTKIETLRFAHNYIWALTQTLRIADHSLYALEPPAPHCGELGSPGGSPGDWGSLYSPVSQAGSLSPAASLEERPGLLGATFSACLSPGSLAFSDFL
modifications: full-length
notes: pro-endocrine bHLH factor, 214 amino acids

What was measured:
[1] = test system: mouse WT pancreatic explants (E12.5); assay: Mouse WT pancreatic explants (E12.5) cultured 4 days with DAPT; staining and qRT-PCR; format: cell-based; conditions: for ductal cell development: 4 days
Method: […] Sections were stained against Mucin1, carboxypeptidase1 (CPA) and glucagon (Glu). C. qRT-PCR analysis of explants performed as in A, B. Pancreatic marker genes were assessed and fold-changes to WT explants treated with DMSO were calculated by DDct method, using GAPDH mRNA as internal standard.
Given that pancreatic ductal cells form in Ngn3 null mice, and because ductal genes have not been identified as direct Ngn3 targets, we set forth to determine if the cell-extrinsic mechanism involving Notch indeed was causal for the Ngn3 Delayed ON phenotype. We first tested if pancreatic ductal cell differentiation was dependent on Notch. We cultured WT pancreatic explants in the presence of DAPT (FIG. 35A, B, C). These experiments were based on E12.5 pancreas, as at that age, the majority of tip/trunk patterning has occurred, and cells are actively undergoing terminal fate decisions. These cultures developed significant numbers of Muc1+ ductal cells during culture in absence of DAPT (FIG. 35A), with a density exceeding that found in-vivo. Acinar cell development (CPA1+) proceeded in WT (FIG. 35A), albeit at a much reduced level compared to normal development. […] Given that Notch processing inhibition strongly affected cellular differentiation, we investigated this further by performing qRT-PCR on similar-type explants (FIG. 35C).

[2] = test system: E12.5 Ngn3 Delayed ON pancreas; assay: Ngn3 Delayed ON pancreas (E12.5) explant culture 4 days with and without DAPT, immunofluorescence; format: cell-based, mouse; conditions: four days ex-vivo
From the text: D-K. Ngn3 Delayed ON pancreas (E12.5, doxycycline was provided at E7.5, E9.5 as in FIG. 2A) was isolated and subjected to 4 days of explant culture with and without DAPT as described in A,B. Immunofluorescence analyses of explant pancreas using select pancreatic markers, after 4 days in culture. D′: insert image showing the expression of glucagon.
Given that Dll1 and Hes1 were >2-fold increased in the E12.5 Ngn3 Delayed ON pancreas, we next asked to what degree Notch processing was also required for the enhanced Ngn3-mediated ductal cell formation in that model. Similar to above, microdissected E12.5 Ngn3 Delayed ON pancreas was cultured for four days ex-vivo with and without DAPT (FIG. 36D-K). In contrast to WT explants, Ngn3 Delayed ON pancreas developed in a quite similar manner as observed in-vivo; in addition to widespread ductal formation, glucagon-producing clusters were observed, and extremely few acinar cells were found (FIG. 36D, F, H). Similar results were obtained using staining for Hnf1β (data not shown). […] The Ngn3-mediated ductal cell formation was abrogated by DAPT treatment ([…]). […] We conclude that Notch signaling is required for both normal, as well as Ngn3-mediated, pancreatic ductal cell development, and that blocking this pathway promotes acinar and endocrine fates at the expense of ductal cells. Of note, at high levels of DAPT treatment, γ-secretase inhibition impacts endocrine subtype determination as well, and if a concomitant increase in Ngn3 protein is provided, the organ regains capacity for significant insulin-cell differentiation.

Ngn3 protein = Ngn3 protein stability and half-life in HepG2 cells, cycloheximide time course, Western blot; format: cell-based
From the text: I. Protein stability and half-life assessment of Ngn3 in HepG2 cells. HepG2 cells were transfected with pTRE2-Ngn3 and pCMV-rtTA, treated with Doxycycline for 24 hr, and on the subsequent day pre-exposed to the proteasomal inhibitor MG132 for 5 hr. At time t=0, protein synthesis was inhibited by cycloheximide (CHX). Western blot using anti-Ngn3 antibodies are shown; b-actin served as a control, and remains stable. MG132 treatment leads to Ngn3 protein accumulation at t=0, and strongly stabilizes the protein, which rapidly decays in non-treated cells. J. Experiment conducted similarly as in I, but CMV-driven versions of Notch1 and Notch2 intracellular domains (N1ICD, N2ICD respectively) (left), or dominant-negative mastermind-like1 (DN-MAML1) were co-transfected with pTRE2-Ngn3. The left-most blot is overexposed to reveal the lower level of accumulated Ngn3 protein in presence of N1ICD, N2ICD, and the loss of Ngn3 upon CHX treatment. The analysis was done 1 hr post CHX treatment. […] K. Mouse pancreatic E14.5 explants were subjected to short-term treatment of CHX (1 hr) and MG132 (5 hr pre, and post-culture) as indicated. Total protein was isolated and subjected to anti-Ngn3 Western blotting. Levels of Ngn3 increase in presence of MG132, and decrease in response to CHX. Ngn3 protein levels increase correspondingly in presence of DAPT, a condition where the protein remains stable (CHX+DAPT lane). L. Stability measurements of Ngn3 in the presence of various cellular regulatory proteins. The experiment was conducted as in I and J. Decay scans (right) provide a measure of the decay rate of Ngn3. In all cases, the t=0 Ngn3 levels prior to CHX treatment is paralleled by the relative half-life of the protein. Destabilizing conditions include N1ICD, N2ICD, and Hes1. Stabilizing conditions include DN-MAML1 and DAPT-treatment. […] Hes1 is able to destabilize Ngn3 in the presence of DN-MAML1.
While Hes1 is known to directly repress Ngn3 expression, this would be an insufficient explanation for the observed results in which Ngn3 was driven by a Pdx1-tTA;tetO governed system. […] As destabilization of other bHLH factors, including NGN, and hASH1 has been observed, which has also implicated Notch, we then tested if a similar mechanism might operate in pancreas. As a means to mechanistically address this question, we first determined if Ngn3 protein half-life was regulated by proteasomal activity. Using three different heterologous cell lines (HepG2, Hek293, and CHO) conditionally expressing Ngn3, we observed a rapid turnover of Ngn3 protein after cycloheximide (CHX) addition; conditions where the control protein, beta-Actin, remained stable (FIG. 34I and data not shown). […]

Molecule | ductal cell development ([1]; 100 μM DAPT) | Gcg expression ([1]; 100 μM DAPT, qRT-PCR) | Ins1, Ins2 expression ([1]; 100 μM DAPT, qRT-PCR) | ductal cell development ([1]; 25-50 μM DAPT) | Ngn3, NeuroD1, Nkx6.1 expression ([1]; qRT-PCR) | Sox9 expression ([1]; qRT-PCR) | acinar gene expression (Cpa1, Cpa2, Ptf1a) ([1]; qRT-PCR) | Ngn3-mediated ductal cell formation [2] | Pdx1+/Ins+ endocrine cells [2] | acinar density (CPA1+ cells) [2] | glucagon-expressing cells [2] | total Ngn3 protein levels and stability (Ngn3 protein; HepG2 cells, DAPT at 50 μM) | half-life of Ngn3 (T1/2) (Ngn3 protein; HepG2 cells co-expressing N1ICD or N2ICD) | half-life of Ngn3 (T1/2) (Ngn3 protein; HepG2 cells, CHX time course, non-treated)
C[C@H](NC(=O)Cc1cc(F)cc(F)c1)C(=O)N[C@H](C(=O)OC(C)(C)C)c1ccccc1 [DAPT, N—[N-(3,5-Diflurophenacetyl-L-alanyl)]-S-phenylglycine t-Butyl Ester] | fully abolished | reduced | further enhanced | significantly reduced | dose-dependent increases | Sox9 expression was reduced | strongly promoted | abrogated | numerous | much increased | correspondingly reduced | increase in total Ngn3 protein levels |  | 
B1 |  |  |  |  |  |  |  |  |  |  |  |  | < 15 ′ | ~30 ′
